The results in this text go back to patent US9150592B2, “Heterocyclic nuclear hormone receptor modulators” (AbbVie Inc., priority 2012, dated 2015).

Assay [1] has as its system IL-6 in A549 cells stimulated with IL-1β. Put plainly: A549 Cell Assay to Measure Inflammation Markers (inhibition of IL-1β-induced IL-6). The conditions noted are these: intrinsic activity, Emax class ranges; for Emax: Homo sapiens, A549, A549 Cell Assay to Measure Inflammation Markers; for A549 Emax: A549 Cell Assay to Measure Inflammation Markers. Format: cell-based. How it is done:
A549 Cell Assay to Measure Inflammation Markers
Further dilution (1:250) of compound was made into assay medium and 50 μL/well diluted drug or DMSO/media control was applied to cells. After a 1 h pre-incubation in a temperature, CO2, and humidity controlled incubator, set to 37° C., 50 μL/well of 4 ng/mL IL-1β diluted in assay media, was applied to cultures. Assay plates, with a final volume of 200 μL/well and final concentrations of 0.1% DMSO and 1 ng/mL IL-1β were returned to incubator for a […] incubation period. Next, plates were spun at 183 g (1000 rpm in Beckman/Coulter Allegra 6KR centrifuge) for 10 min. Cell-free supernatant (150 μL/well) was collected and IL-6 was measured by MSD kit, following protocol of manufacturer, and using MSD SECTOR Imager 6000 instrument. […] Results were represented as IC50 and Emax values.

Assay [2] deals with T1, Glucocorticoid Receptor (GR) (Homo sapiens, UniProt P04150).
T1 construct: purchased Invitrogen P2893
T1 sequence (P04150 1-777): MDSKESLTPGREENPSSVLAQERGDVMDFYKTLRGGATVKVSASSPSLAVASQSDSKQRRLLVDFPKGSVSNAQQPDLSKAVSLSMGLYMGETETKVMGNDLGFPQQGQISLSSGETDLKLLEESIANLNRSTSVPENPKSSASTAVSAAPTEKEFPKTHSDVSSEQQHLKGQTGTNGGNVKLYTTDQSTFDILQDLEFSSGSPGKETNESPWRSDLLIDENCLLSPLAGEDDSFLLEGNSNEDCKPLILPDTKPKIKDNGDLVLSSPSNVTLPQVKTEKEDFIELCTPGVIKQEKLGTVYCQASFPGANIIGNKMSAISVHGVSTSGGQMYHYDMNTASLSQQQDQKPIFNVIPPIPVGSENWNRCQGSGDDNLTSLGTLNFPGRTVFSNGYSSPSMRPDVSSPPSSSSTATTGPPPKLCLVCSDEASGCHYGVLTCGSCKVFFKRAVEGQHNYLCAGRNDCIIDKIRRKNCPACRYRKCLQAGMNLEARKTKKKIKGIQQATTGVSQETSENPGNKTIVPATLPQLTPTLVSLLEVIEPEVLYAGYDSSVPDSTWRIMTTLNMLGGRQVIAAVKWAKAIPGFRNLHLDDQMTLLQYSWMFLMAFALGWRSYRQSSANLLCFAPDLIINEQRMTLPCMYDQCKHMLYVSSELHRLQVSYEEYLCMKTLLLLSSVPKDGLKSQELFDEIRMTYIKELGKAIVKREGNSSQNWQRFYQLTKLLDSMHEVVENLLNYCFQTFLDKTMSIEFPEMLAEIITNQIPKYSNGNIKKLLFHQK
Put plainly: GR Fluorescence Polarization Assay (PolarScreen Glucocorticoid Receptor Competitor Assay, Red). Particulars: IC50 class ranges, read-out: GR binding. The gist of the method:
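Competitive fluorescence-polarization assay using a red fluorescent glucocorticoid tracer with human GR in kit buffer. Compounds serially diluted 1:4 in DMSO, incubated with tracer and GR overnight at 4° C, then polarization read.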

Turning to `CC(=O)N1CCC(C2SCCNc3c2c(-c2ccccn2)nn3C)CC1` (stereo not shown), in assay [1], the Emax was less than 50%. The IC50 in assay [2] is greater than 10000 nM.
The corresponding values for `Cc1nn(C)c2c1C(c1ccc(Cl)cc1Cl)SC(C)(C)CN2CC(O)C(F)(F)F` (stereo not shown) are less than 50% and greater than 10000 nM.
Regarding `Cn1nc(-c2ccccn2)c2c1NCCSC2c1ccc(C(=O)O)cc1Cl` (stereo not shown), the Emax in assay [1] is less than 50%. Further, the IC50 in assay [2] lay in the range of 100 to 1000 nM.
Turning to `Cc1ncccc1NC(=O)c1ccc([C@H]2SCCNc3c2c(-c2ccccn2)nn3C)c(Cl)c1`, the “A549 Emax” value in assay [1] is reported as “A (a compound with Emax>70%)”. The IC50 in assay [2] was less than 100 nM.
In the case of `Cc1cc(C(=O)Nc2cccnc2C)ccc1C1SCCNc2c1c(-c1ccccn1)nn2C` (stereo not shown), the Emax in assay [1] was greater than 70%. The IC50 in assay [2] is less than 100 nM.
The corresponding values for `Cc1nn(C)c2c1C(c1ccc(Cl)cc1Cl)SC(C)(C)CN2C=O` (stereo not shown) are less than 50% and 1000 to 10000 nM.
On to `Cc1nn(C)c2c1C(c1ccc(Cl)cc1Cl)SC(C)(C)C(=O)N2C` (stereo not shown), for which the Emax in assay [1] was less than 50%. In assay [2], the IC50 is 1000 to 10000 nM.
Consider `Cc1nn(C)c2c1C(c1ccc(Cl)cc1Cl)SC(C)(C)CN2C` (stereo not shown), for which the Emax in assay [1] was less than 50%. The IC50 in assay [2] was 100 to 1000 nM.
Consider `Cn1nc(-c2ccccn2)c2c1NCCSC2c1ccc(Br)cc1Cl` (stereo not shown), for which, in assay [1], the Emax was less than 50%. Moreover, in assay [2], the IC50 was less than 100 nM.
Take `Cc1cc(Br)ccc1C1SCCNc2c1c(-c1ccccn1)nn2C` (stereo not shown): the Emax in assay [1] is greater than 50%. The IC50 in assay [2] is less than 100 nM.
Compound `Cc1cc(Cl)ccc1C1SCCNc2c1c(-c1ccn[nH]1)nn2C` (stereo not shown) returned an Emax in assay [1] of less than 50%. Also, the IC50 in assay [2] lay within 100 to 1000 nM.
The corresponding values for `CC1=Nc2c(c(-c3ccccn3)nn2C)C(c2ccc(Cl)cc2C)SC1` (stereo not shown) are less than 50% and 100 to 1000 nM.
The compound `Cc1cc(Cl)ccc1[C@H]1SC(C)(C)CNc2c1c(C1CC1)nn2C` returned an Emax in assay [1] greater than 60%. In addition, in assay [2], the IC50 was less than 100 nM.
The corresponding values for `Cc1cc(Cl)ccc1[C@H]1SC[C@H](C)Nc2c1c(-c1ccccn1)nn2C` are less than 50% and 1000 to 10000 nM.
As to `Cc1cc(Cl)ccc1[C@@H]1SC(C)(C)CNc2c1c(C1CC1)nn2C`, the Emax in assay [1] was less than 50%. Moreover, the IC50 in assay [2] was in the range of 100 to 1000 nM.
In turn, `Cc1cc(Cl)ccc1[C@@H]1SC[C@@H](C)Nc2c1c(-c1ccccn1)nn2C` returned an Emax in assay [1] greater than 70%. Also, in assay [2], the IC50 was less than 100 nM.
Consider `CCn1nc(-c2ccccn2)c2c1NCCCC2c1ccc(Br)cc1` (stereo not shown), for which the Emax in assay [1] was greater than 70%. For the same compound, the IC50 in assay [2] was less than 100 nM.
With `Cc1cc(C(=O)Nc2cccnc2C)ccc1[C@H]1SCCNc2c1c(-c1ccccn1)nn2C`, the “A549 Emax” value in assay [1] is listed as “B (a compound with Emax>60%)”. Moreover, the IC50 in assay [2] lay in the range of 100 to 1000 nM.
Consider `Cc1cc(C(=O)Nc2cccnc2C)ccc1[C@@H]1SCCNc2c1c(-c1ccccn1)nn2C`, for which, in assay [1], the “A549 Emax” value is “A (a compound with Emax>70%)”. Moreover, the IC50 in assay [2] was less than 100 nM.
The compound `Cn1nc([C@@H]2CCCN2)c2c1NCCSC2c1ccc(Cl)cc1Cl` (mixture of isomers) had a maximal effect (Emax) in assay [1] of less than 50%. The IC50 in assay [2] is greater than 10000 nM.
For `Cc1cc(Cl)ccc1C1SCCNc2c1c([C@@H]1CCCN1)nn2C` (mixture of isomers), the maximal effect (Emax) in assay [1] was less than 50%. Besides, the IC50 in assay [2] was 1000 to 10000 nM.
The matching figures for `Cc1cc(Br)ccc1[C@H]1SC[C@H](C(N)=O)Nc2c1c(-c1ccccn1)nn2C` (racemic): less than 50% and 100 to 1000 nM.
The compound `Cc1cc(Br)ccc1C1SCC(C#N)Nc2c1c(-c1ccccn1)nn2C` (racemic) gave a maximum response (Emax) in assay [1] greater than 60%. In assay [2], the IC50 was less than 100 nM.
Take `Cc1cc(Br)ccc1[C@H]1SC[C@H](CC#N)Nc2c1c(-c1ccccn1)nn2C` (racemic): the Emax in assay [1] is greater than 50%. Moreover, the IC50 in assay [2] was less than 100 nM.
The matching figures for `Cc1cc2c(cnn2-c2ccc(F)cc2)cc1C1SCC(=O)Nc2c1c(-c1ccccn1)nn2C` (racemic): greater than 70% and less than 100 nM.
The compound `Cc1cc(Cl)ccc1[C@@H]1S[C@@H](CCO)[C@@H](C)Nc2c1c(C)nn2C` (racemic) had an Emax in assay [1] greater than 70%. Besides, the IC50 in assay [2] is less than 100 nM.
`Cc1cc(Br)ccc1[C@H]1SC[C@@H](C(F)(F)F)Nc2c1c(-c1ccccn1)nn2C` (racemic) had a maximum response (Emax) in assay [1] of less than 50%. In addition, in assay [2], the IC50 was less than 100 nM.
For `Cc1cc(Br)ccc1[C@H]1SC[C@H](C(F)(F)F)Nc2c1c(-c1ccccn1)nn2C` (racemic), the Emax in assay [1] is less than 50%. Besides, the IC50 in assay [2] was 100 to 1000 nM.
The matching figures for `Cc1cc(C(=O)Nc2cccnc2C)ccc1[C@H]1CC[C@](O)(C(F)(F)F)Cc2c1c(-c1ccccn1)nn2C` (racemic): greater than 70% and less than 100 nM.
The corresponding values for `Cc1cc(C(=O)Nc2cccnc2C)ccc1[C@H]1CC[C@@](O)(C(F)(F)F)Cc2c1c(-c1ccccn1)nn2C` (racemic) are greater than 70% and less than 100 nM.
In assay [1], `Cc1cc(Cl)ccc1C1SCC(C)Nc2c1c(-c1ccccn1)nn2C` (racemic) [4-(4-chloro-2-methyl-phenyl)-1,7-dimethyl-3-(2-pyridyl)-4,6,7,8-tetrahydropyrazolo[3,4-e][1,4]thiazepine] displayed an Emax greater than 70%. Besides, the IC50 in assay [2] is less than 100 nM.
The matching figures for `Cc1cc(C#N)ccc1[C@H]1S[C@@H](C)CNc2c1c(C1CC1)nn2C` (racemic) [G.3]: less than 50% and less than 100 nM.
The compound `Cc1cc(C#N)ccc1[C@@H]1S[C@@H](C)CNc2c1c(C1CC1)nn2C` (racemic) [G.4] displayed an Emax in assay [1] of less than 50%. Further, the IC50 in assay [2] was less than 100 nM.
As to `Cc1cc(Cl)ccc1[C@H]1SC(C)(C)[C@@H](c2ccccc2)Nc2c1c(C)nn2C` (racemic) [K.2], the Emax in assay [1] is less than 50%. For the same compound, in assay [2], the IC50 lay in the range of 1000 to 10000 nM.
Regarding `Cc1cc(Cl)ccc1[C@H]1SC[C@@H](C)Nc2c1c(C)nn2C` (racemic) [K.7], the Emax in assay [1] was less than 50%. In assay [2], the IC50 was less than 100 nM.
In turn, `Cc1cc(Br)ccc1[C@@H]1SC[C@H](CO)Nc2c1c(-c1ccccn1)nn2C` (racemic) [K.9] had an Emax in assay [1] of less than 50%. In addition, in assay [2], the IC50 was less than 100 nM.
The corresponding values for `Cc1cc(Br)ccc1[C@@H]1SC[C@@H](CO)Nc2c1c(-c1ccccn1)nn2C` (racemic) [K.10, rac-((4R,7S)-4-(4-bromo-2-methylphenyl)-1-methyl-3-(pyridin-2-yl)-4,6,7,8-tetrahydro-1H-pyrazolo[3,4-e][1,4]thiazepin-7-yl)methanol] are greater than 60% and less than 100 nM.
`Cc1ncccc1NC(=O)c1ccc(C2SCCNc3c2c(-c2ccccn2)nn3C)c(Cl)c1` (single isomer, unassigned) yielded an Emax in assay [1] of less than 50%. The IC50 in assay [2] lay within 1000 to 10000 nM.
The compound `Cc1cc(Cl)ccc1C1SCCNc2c1c(-c1ccccn1)nn2C` (single isomer, unassigned) registered a maximum response (Emax) in assay [1] of less than 50%. The IC50 in assay [2] is 100 to 1000 nM.
On to `Cc1cc(Cl)ccc1C1SCC(C)Nc2c1c(-c1ccccn1)nn2C` (single isomer, unassigned), for which the Emax in assay [1] is less than 50%. Besides, the IC50 in assay [2] was in the range of 1000 to 10000 nM.
Compound `Cc1cc(C(=O)Nc2cccnc2C)ccc1C1SCC(CO)Nc2c1c(-c1ccccn1)nn2C` (single isomer, unassigned) gave an Emax in assay [1] greater than 70%. In addition, the IC50 in assay [2] is less than 100 nM.
The compound `Cc1cc(Cl)ccc1C1SC(CCO)C(C)Nc2c1c(C)nn2C` (single isomer, unassigned) came in with an Emax in assay [1] greater than 70%. Also, the IC50 in assay [2] was in the range of 100 to 1000 nM.
The matching figures for `Cn1nc(-c2ccccn2)c2c1NCCS[C@@H]2c1ccc(Br)cc1Cl` (single isomer, unassigned) [M.1, 4-(4-bromo-2-chlorophenyl)-1-methyl-3-(pyridin-2-yl)-4,6,7,8-tetrahydro-1H-pyrazolo[3,4-e][1,4]thiazepine]: less than 50% and 100 to 1000 nM.
For the compound `Cn1nc(-c2ccccn2)c2c1NCCS[C@H]2c1ccc(Br)cc1Cl` (single isomer, unassigned) [M.2, 4-(4-bromo-2-chlorophenyl)-1-methyl-3-(pyridin-2-yl)-4,6,7,8-tetrahydro-1H-pyrazolo[3,4-e][1,4]thiazepine], in assay [1], the Emax was less than 50%. Besides, the IC50 in assay [2] was less than 100 nM.
